# Values joined by “and” are separate entries in the source; they are usually repeats but may differ in a detail not shown here. Equal values may be shown once.
# Settings: instrument: DT, single field, calibrated with ESI Low Concentration Tuning Mix (Agilent)
Compound,collision cross section (N2) ([M+H]+),collision cross section (N2) ([M+Na-2H]-),collision cross section (N2) ([M+Na]+),collision cross section (N2) ([M-H]-),collision cross section (N2) ([M+H2O-H]-),collision cross section (N2) ([M+K]+)
Nc1ncnc2c1ncn2[C@@H]1O[C@H](COP(=O)(O)OP(=O)(O)OP(=O)(O)O)[C@@H](O)[C@H]1O [ADENOSINE TRIPHOSPHATE],196.6 Å² and 196.9 Å²,193.5 Å²,204 Å² and 204.2 Å²,188.2 Å² and 188.3 Å²,–,–
Nc1ncnc2c1ncn2[C@@H]1O[C@H](COP(=O)(O)O)[C@@H](O)[C@H]1O [ADENOSINE-MONOPHOSPHATE],–,179.5 Å²,–,173.1 Å²,–,–
OC[C@H]1O[C@H](O)[C@H](O)[C@@H](O)[C@@H]1O [ALPHA-D-GLUCOSE],–,–,146.6 Å²,–,–,–
OC1OC[C@H](O)[C@H](O)[C@H]1O (some centres undefined) [ARABINOSE],–,–,134.6 Å²,–,–,–
O=C1O[C@H]([C@@H](O)CO)C(O)=C1O [ASCORBATE],–,–,141.6 Å²,127.7 Å²,–,–
N[C@@H](CC(=O)O)C(=O)O [ASPARTATE],–,–,–,118.6 Å² and 118.7 Å²,–,–
O=P(O)(O)OC(CO)CO [BETA-GLYCEROPHOSPHATE],–,147.2 Å²,140.5 Å²,126.3 Å²,–,–
CCCCC(CC)COC(=O)c1ccccc1C(=O)OCC(CC)CCCC (centres undefined) [BIS(2-ETHYLHEXYL)PHTHALATE],212.2 Å²,–,–,–,203 Å²,–
NCCOP(=O)(O)OP(=O)(O)OC[C@H]1O[C@@H](n2ccc(N)nc2=O)[C@H](O)[C@@H]1O [CDP-ETHANOLAMINE],–,186.1 Å²,–,188.2 Å²,–,–
C[C@H](CCC(=O)O)[C@H]1CC[C@H]2[C@@H]3[C@H](O)C[C@@H]4C[C@H](O)CC[C@]4(C)[C@H]3C[C@H](O)[C@]12C [CHOLATE],–,–,197.5 Å²,203.1 Å²,–,–
CCCCCCCCCCCCCCCC(=O)O[C@H]1CC[C@@]2(C)C(=CC[C@H]3[C@@H]4CC[C@H]([C@H](C)CCCC(C)C)[C@@]4(C)CC[C@@H]32)C1 [CHOLESTERYL PALMITATE],–,–,286.3 Å²,–,–,–
C[N+](C)(C)CCOP(=O)([O-])OP(=O)(O)OC[C@H]1O[C@@H](n2ccc(N)nc2=O)[C@H](O)[C@@H]1O [CITICOLINE],198.3 Å²,210.2 Å²,207.8 Å²,205.9 Å²,–,–
CC(C)(COP(=O)(O)OP(=O)(O)OC[C@H]1O[C@@H](n2cnc3c(N)ncnc32)[C@H](O)[C@@H]1OP(=O)(O)O)[C@@H](O)C(=O)NCCC(=O)NCCS [COENZYME A],241.4 Å²,246.2 Å²,255.5 Å²,244.4 Å²,–,–
C[C@]12CCC(=O)C=C1CC[C@@H]1[C@@H]2CC[C@@]2(C)[C@H]1CC[C@]2(O)C(=O)CO [CORTEXOLONE],187.7 Å²,–,211 Å²,–,–,–
C[C@]12C[C@H](O)[C@H]3[C@@H](CCC4=CC(=O)CC[C@@]43C)[C@@H]1CC[C@@H]2C(=O)CO [CORTICOSTERONE],186.9 Å²,–,–,186.8 Å²,–,208.4 Å²
C[C@]12CCC(=O)C=C1CC[C@@H]1[C@@H]2[C@@H](O)C[C@@]2(C)[C@H]1CC[C@]2(O)C(=O)CO [CORTISOL],188.6 Å²,–,212.9 Å²,191.9 Å²,–,210.7 Å²
Nc1ncnc2c1ncn2[C@@H]1O[C@@H]2COP(=O)(O)O[C@H]2[C@H]1O [CYCLIC AMP],172.6 Å² and 176.8 Å²,–,181 Å² and 188.6 Å² and 188.8 Å²,171.8 Å² and 172 Å²,–,–
Nc1ccn([C@@H]2O[C@H](COP(=O)(O)OP(=O)(O)O)[C@@H](O)[C@H]2O)c(=O)n1 [CYTIDINE DIPHOSPHATE],175.6 Å²,176.3 Å²,179.9 Å²,174.2 Å²,–,–
O=C1O[C@H]([C@@H](O)CO)C(=O)C1=O [DEHYDROASCORBATE],–,–,–,127.8 Å²,–,–
Nc1ncnc2c1ncn2[C@H]1C[C@H](O)[C@@H](COP(=O)(O)OP(=O)(O)OP(=O)(O)O)O1 [DEOXYADENOSINE TRIPHOSPHATE],194.8 Å²,185.9 Å²,202 Å²,186.5 Å²,–,–

Compound,collision cross section (N2) ([M+H]+),collision cross section (N2) ([M+Na-2H]-),collision cross section (N2) ([M+Na]+),collision cross section (N2) ([M-H]-),collision cross section (N2) ([M+H2O-H]-),collision cross section (N2) ([M+K]+)
C[N+](C)(C)CCCC(=O)[O-] [DEOXYCARNITINE],129.7 Å²,–,–,–,–,–
CC(=O)OCC(=O)[C@H]1CC[C@H]2[C@@H]3CCC4=CC(=O)CC[C@]4(C)[C@H]3CC[C@]12C [DEOXYCORTICOSTERONE ACETATE],196.9 Å²,–,–,–,–,–
Nc1nc(=O)c2ncn([C@H]3C[C@H](O)[C@@H](CO)O3)c2[nH]1 [DEOXYGUANOSINE],–,–,171.7 Å²,159.1 Å²,–,171.4 Å²
O=c1ccn([C@H]2C[C@H](O)[C@@H](COP(=O)(O)OP(=O)(O)OP(=O)(O)O)O2)c(=O)[nH]1 [DEOXYURIDINE TRIPHOSPHATE],–,188.9 Å²,185.3 Å²,178.6 Å²,–,–
O=c1ccn([C@H]2C[C@H](O)[C@@H](CO)O2)c(=O)[nH]1 [DEOXYURIDINE],–,–,156.4 Å²,148.9 Å²,–,–
C[C@@H]1NC(=O)N[C@@H]1CCCCCC(=O)O [DETHIOBIOTIN],144 Å²,148.8 Å²,155 Å²,152.5 Å²,–,155.8 Å²
Nc1nc(=O)c2ncn([C@H]3C[C@H](O)[C@@H](COP(=O)(O)OP(=O)(O)O)O3)c2[nH]1 [DGDP],188.5 Å²,177.5 Å² and 185.6 Å²,185.2 Å²,180.8 Å²,–,–
O=C1CC(C(=O)O)NC(=O)N1 (centres undefined) [DIHYDROOROTATE],–,–,–,125.2 Å²,–,–
Cc1cn([C@H]2C[C@H](O)[C@@H](COP(=O)(O)OP(=O)(O)OC3O[C@H](CO)[C@@H](O)[C@H](O)[C@H]3O)O2)c(=O)[nH]c1=O (stereo partly drawn) [DTDP-D-GLUCOSE],–,218.2 Å²,209.9 Å²,209.5 Å²,–,–
CNC[C@H](O)c1ccc(O)c(O)c1 [EPINEPHRINE],–,–,–,140.1 Å²,–,–
NCCOP(=O)(O)O [ETHANOLAMINE PHOSPHATE],–,–,–,123 Å²,–,–
O=C(CO)[C@@H](O)[C@H](O)[C@H](O)COP(=O)(O)O [FRUCTOSE 6-PHOSPHATE],–,154.9 Å²,154.4 Å²,144.1 Å²,–,–
O=P(O)(O)OC1O[C@H](CO)[C@@H](O)[C@H](O)[C@H]1O (some centres undefined) [GLUCOSE 1-PHOSPHATE],–,–,158.3 Å²,148.7 Å²,–,–
O=P(O)(O)OC[C@H]1OC(O)[C@H](O)[C@@H](O)[C@@H]1O (some centres undefined) [GLUCOSE 6-PHOSPHATE],–,156.9 Å²,158.1 Å²,146.5 Å² and 146.6 Å²,–,–
N[C@@H](CCC(=O)N[C@@H](CS)C(=O)NCC(=O)O)C(=O)O [GLUTATHIONE REDUCED],167.8 Å²,164.8 Å²,167 Å²,162.1 Å²,–,–
O=P(O)(O)OCC(O)CO (centres undefined) [GLYCEROL 3-PHOSPHATE],–,–,137.1 Å²,127.2 Å²,–,–
C[C@H](CCC(=O)NCC(=O)O)[C@H]1CC[C@H]2[C@@H]3[C@H](O)C[C@@H]4C[C@H](O)CC[C@]4(C)[C@H]3C[C@H](O)[C@]12C [GLYCOCHOLATE],199.7 Å²,–,202.2 Å²,202.2 Å²,–,208 Å²
O=C(O)CNC(=O)c1ccccc1 [HIPPURATE],–,–,149.6 Å²,142 Å²,–,–
NC(CCO)C(=O)O (centres undefined) [HOMOSERINE],125.9 Å²,–,–,120.2 Å²,–,–
COc1cc(CC(=O)O)ccc1O [HOMOVANILLATE],–,–,146.2 Å²,136 Å²,–,–

# Reference: the C3SDB collision cross section collection
